From the NIST ThermoML archive (doi:10.1007/s10765-005-5566-6)

Conditions: Gas, Hot wire method

O=C=O [carbon dioxide]
Conditions	thermal conductivity [W/m/K]
298.89 K, 6100 kPa	0.03312
299.02 K, 5760 kPa	0.02896
299.19 K, 5400 kPa	0.02633
299.31 K, 5035 kPa	0.02441
299.5 K, 4555 kPa	0.02268
299.6 K, 3980 kPa	0.02109
299.73 K, 3285 kPa	0.01968
299.85 K, 2555 kPa	0.01861
300.06 K, 1702 kPa	0.01777
300.37 K, 714 kPa	0.01712
302.67 K, 6635 kPa	0.037
302.77 K, 6400 kPa	0.03309
302.8 K, 6025 kPa	0.02905
302.86 K, 5675 kPa	0.02694
302.92 K, 5290 kPa	0.02471
302.97 K, 4870 kPa	0.02339
303.08 K, 4340 kPa	0.02178
303.22 K, 3765 kPa	0.02053
303.51 K, 3160 kPa	0.01961
303.81 K, 2415 kPa	0.01872
303.99 K, 1612 kPa	0.01795
304.21 K, 724 kPa	0.01741
324.87 K, 7960 kPa	0.03214
324.9 K, 7750 kPa	0.03118
324.92 K, 7440 kPa	0.02954
324.95 K, 5960 kPa	0.02501
325.01 K, 6900 kPa	0.02771
325.04 K, 6760 kPa	0.02716
325.1 K, 5575 kPa	0.02434
325.12 K, 6360 kPa	0.02611
325.28 K, 5060 kPa	0.02323
325.42 K, 4605 kPa	0.02254
325.48 K, 4040 kPa	0.02182
325.64 K, 3500 kPa	0.02126
325.81 K, 2880 kPa	0.02052
325.93 K, 2218 kPa	0.02003
326.03 K, 1514 kPa	0.01958
326.17 K, 684 kPa	0.01921
326.26 K, 497 kPa	0.0191
350.83 K, 9985 kPa	0.03324
350.89 K, 8840 kPa	0.03029
350.96 K, 7540 kPa	0.02768
351.12 K, 6040 kPa	0.02551
351.44 K, 4275 kPa	0.02351
351.82 K, 2214 kPa	0.02197
351.87 K, 1820 kPa	0.02181
351.91 K, 1420 kPa	0.02153
352.1 K, 994 kPa	0.02141
352.23 K, 572 kPa	0.02136
375.68 K, 14930 kPa	0.04175
375.71 K, 13880 kPa	0.03888
375.75 K, 12560 kPa	0.03615
375.8 K, 11100 kPa	0.03322
375.85 K, 9640 kPa	0.03079
375.91 K, 8060 kPa	0.02887
376.01 K, 6260 kPa	0.02673
376.11 K, 4240 kPa	0.02504
376.28 K, 2004 kPa	0.02377
376.51 K, 1015 kPa	0.02346
400.85 K, 15010 kPa	0.03843
400.93 K, 13550 kPa	0.03623
400.98 K, 11950 kPa	0.03389
401.03 K, 10340 kPa	0.03194
401.15 K, 8495 kPa	0.03004
401.3 K, 6660 kPa	0.0285
401.42 K, 4600 kPa	0.02712
401.6 K, 2382 kPa	0.02597
401.66 K, 1690 kPa	0.02584
401.74 K, 975 kPa	0.02566
427.12 K, 12000 kPa	0.03429
427.23 K, 9898 kPa	0.0325
427.38 K, 8240 kPa	0.03127
427.51 K, 6160 kPa	0.02966
427.67 K, 3970 kPa	0.02879
427.7 K, 3020 kPa	0.02833
427.95 K, 2050 kPa	0.02812
428.05 K, 1040 kPa	0.02797
